Data from PubChem BioAssay (NCI).
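The compound was tested at five concentrations on cells cultured in 96-well plates, with a 48-hour exposure period. GI50: concentration for 50% inhibition of growth. TGI denotes the concentration required for complete inhibition of growth.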

How the values were obtained:
Assay in all cases: NCI anticancer screen, dose series, 48 h
DMS 114 small cell lung = system: DMS 114 small cell lung
BT-549 breast = system: BT-549 breast
DU-145 prostate = system: DU-145 prostate
HS 578T breast = system: HS 578T breast
MDA-N = system: MDA-N
ACHN renal = system: ACHN renal
RXF-631 renal = system: RXF-631 renal

| SMILES | TGI (DMS 114 small cell lung) | TGI (DU-145 prostate) | TGI (HS 578T breast) | TGI (ACHN renal) | further results |
| --- | --- | --- | --- | --- | --- |
| O=C(NN1C(=O)C(Cl)C1c1ccc([N+](=O)[O-])cc1)c1ccccc1O (stereo not given) | > 100 µM |  |  |  |  |
| CC(=O)O[C@H]1CC[C@H]2[C@@H]3CC[C@H]4Nc5c(cnn5S(C)(=O)=O)C[C@]4(C)[C@H]3CC[C@]12C |  | > 100 µM | > 100 µM |  | TGI (BT-549 breast): 80.9 µM; TGI (MDA-N): > 100 µM |
| CCOC(=O)C1CCn2c(nc3c(=O)n(C)c(=O)n(C)c32)S1 (stereo not given) |  |  |  | > 100 µM | TGI (RXF-631 renal): > 100 µM |
| Cn1nc2ccc3nccc(NCCNCCCl)c3c2n1 | > 100 µM |  |  | > 100 µM |  |
| CCNC(=O)CCCCC(=O)c1c(C)[nH]c(/C=C2\N=C(c3ccc[nH]3)C=C2OC)c1C |  | 11 µM | 4.92 µM | 3.34 µM | GI50 (ACHN renal): 1.8 µM; GI50 (BT-549 breast): 2.85 µM; TGI (BT-549 breast): 10.3 µM; GI50 (DU-145 prostate): 3.01 µM; GI50 (HS 578T breast): 2.04 µM |
| COC(=O)C[C@](O)(CCC(C)(C)O)C(=O)O[C@@H]1C(OC)=C[C@]23CCCN2CCc2cc4c(cc2[C@H]13)OCO4 | 0.0597 µM |  |  |  |  |
| CN(C)S(=O)(=O)c1cccc(-c2nc3sc4c(c3c(=O)[nH]2)CCCC4)c1 |  |  | > 100 µM |  | GI50 (HS 578T breast): 2.98 µM |
| O=C(/C=C/c1ccsc1)c1ccc(Cl)s1 |  | > 100 µM | > 100 µM | > 100 µM | TGI (MDA-N): > 100 µM |
| CC1=NN(C(=O)c2ccccc2)C(=O)C1N=Nc1ccccc1C(=O)O (stereo not given) | > 100 µM |  |  |  |  |
